Experimental data reported in EP2857388A1, “Azoles containing sulfone” (Grünenthal GmbH, priority 2013, dated 2015).

Target: T1, human B1R (Homo sapiens, UniProt P46663)
T1 construct: expressed in transfected cells; host or cells: CHO K1 cells (Chinese Hamster Ovary), stably transfected
T1 sequence (P46663 1-353): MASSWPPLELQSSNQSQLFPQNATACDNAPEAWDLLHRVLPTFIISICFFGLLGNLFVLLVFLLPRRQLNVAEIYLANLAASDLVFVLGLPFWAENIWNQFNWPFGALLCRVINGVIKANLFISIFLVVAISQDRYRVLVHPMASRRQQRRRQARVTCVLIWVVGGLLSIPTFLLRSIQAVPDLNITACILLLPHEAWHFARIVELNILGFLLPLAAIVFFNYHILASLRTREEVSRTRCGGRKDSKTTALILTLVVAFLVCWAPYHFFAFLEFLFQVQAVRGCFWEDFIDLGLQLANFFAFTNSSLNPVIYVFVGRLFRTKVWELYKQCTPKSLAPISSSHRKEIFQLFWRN
Experiment: Functional assay at bradykinin receptor 1 (B1R): Ca2+ fluorescence (Fluo-4) in FLIPR/Novostar, antagonist mode
Format: cell-based
Details: test substance 10 µM; CHO K1 cells stably transfected with human B1R gene (hB1R-Zellen); agonist Lys-Des-Arg9-Bradykinin at EC80; % inhibition relative to maximal achievable inhibition; read-out: % Inhibierung (human B1R) bei 10 µM
Outline: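 Antagonism read as suppression of the Ca2+ rise in Fluo-4-loaded, hB1R-transfected CHO K1 cells when Lys-Des-Arg9-bradykinin (EC80) follows a 6–20 min compound preincubation. Maximal fluorescence counts, measured on FLIPR or Novostar, yield % inhibition relative to maximum; IC50 values come from concentration series run in duplicate or triplicate.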

inhibition at 10 µM	SMILES
100%	COc1cc(C)c(S(=O)(=O)Cc2noc(CC(=O)N3CCC(N4CCN(C)CC4)CC3)n2)c(C)c1 [CC-131, 2-[3-[[(4-Methoxy-2,6-dimethyl-phenyl)sulfonyl]-methyl]-[1,2,4]oxadiazol-5-yl]-1-[4-(4-methyl-piperazin-1-yl)-piperidin-1-yl]-ethanon]
99%	Cc1cccc(Cl)c1S(=O)(=O)Cc1noc(C(=O)N2CCN(c3ccncc3)CC2)n1 [CC-137, [3-[[(2-Chlor-6-methyl-phenyl)sulfonyl]-methyl]-[1,2,4]oxadiazol-5-yl]-(4-pyridin-4-yl-piperazin-1-yl)-methanon]
100%	COc1cc(C)c(S(=O)(=O)Cc2noc(CC(=O)N(C)C3CCN(c4ncnc5ccccc45)CC3)n2)c(C)c1 [SC-63, 2-[3-[[(4-Methoxy-2,6-dimethyl-phenyl)sulfonyl]-methyl]-[1,2,4]oxadiazol-5-yl]-N-methyl-N-(1-chinazolin-4-yl-piperidin-4-yl)-acetamid]
99%	Cc1cc(S(=O)(=O)Cc2noc(C(=O)N3CCC4(CCN(C)C4)C3)n2)c(C)cc1Cl (stereo not shown) [CC-142, [3-[[(4-Chlor-2,5-dimethyl-phenyl)sulfonyl]-methyl]-[1,2,4]oxadiazol-5-yl]-(2-methyl-2,8-diaza-spiro[4.4]nonan-8-yl)-methanon]
100%	COc1cc(C)c(S(=O)(=O)Cc2nnc(CC(=O)NC3CCC(c4ccncc4)CC3(C)C)o2)c(C)c1 (stereo not shown) [CC-36, N-(2,2-Dimethyl-4-pyridin-4-yl-cyclohexyl)-2-[5-[[(4-methoxy-2,6-dimethyl-phenyl)sulfonyl]-methyl]-[1,3,4]oxadiazol-2-yl]-acetamid]

Second part, the compound before the results:

SMILES	inhibition at 10 µM
COc1cc(C)c(S(=O)(=O)Cc2noc(C(=O)N3CCC(N4CCN(C)CC4)CC3)n2)c(C)c1 [CC-129, [3-[[(4-Methoxy-2,6-dimethyl-phenyl)sulfonyl]-methyl]-[1,2,4]oxadiazol-5-yl]-[4-(4-methyl-piperazin-1-yl)-piperidin-1-yl]-methanon]	100%
O=C(Cc1nc(CS(=O)(=O)c2cccc(Cl)c2Cl)no1)NC1CCNCC1 [CC-54, 2-[3-[[(2,3-Dichlor-phenyl)sulfonyl]-methyl]-[1,2,4]oxadiazol-5-yl]-N-piperidin-4-yl-acetamid]	52%
CN(C)C1CCC(NC(=O)Cc2nc(CS(=O)(=O)c3cccc(Cl)c3Cl)no2)CC1 (stereo not shown) [CC-59, 2-[3-[[(2,3-Dichlor-phenyl)sulfonyl]-methyl]-[1,2,4]oxadiazol-5-yl]-N-(4-dimethylamino-cyclohexyl)-acetamid]	63%
COc1cc(C)c(S(=O)(=O)Cc2noc(C(=O)N3CCC(Oc4ccncc4)C3)n2)c(C)c1 (stereo not shown) [SC-03, [3-[[(4-Methoxy-2,6-dimethyl-phenyl)sulfonyl]-methyl]-[1,2,4]oxadiazol-5-yl]-(3-pyridin-4-yloxy-pyrrolidin-1-yl)-methanon]	98%
Cc1cccc(Cl)c1S(=O)(=O)Cc1noc(C(=O)N2C3CCC2CC(Oc2ccncc2)C3)n1 [CC-150, [3-[[(2-Chlor-6-methyl-phenyl)sulfonyl]-methyl]-[1,2,4]oxadiazol-5-yl]-[(1S,5R)-3-pyridin-4-yloxy-8-azabicyclo[3.2.1]octan-8-yl]-methanon]	100%
Cc1cccc(Cl)c1S(=O)(=O)Cc1noc(CC(=O)NC2CCN(C)CC2(C)C)n1 (stereo not shown) [CC-96, 2-[3-[[(2-Chlor-6-methyl-phenyl)sulfonyl]-methyl]-[1,2,4]oxadiazol-5-yl]-N-(1,3,3-trimethyl-piperidin-4-yl)-acetamid]	100%
COc1cc(C)c(S(=O)(=O)Cc2nc(CC(=O)NC3CCNCC3)no2)c(C)c1 [CC-42, 2-[5-[[(4-Methoxy-2,6-dimethyl-phenyl)sulfonyl]-methyl]-[1,2,4]oxadiazol-3-yl]-N-piperidin-4-yl-acetamid]	100%
COc1cc(C)c(S(=O)(=O)Cc2cn(CC(=O)N(C3CCC(N(C)C)CC3)C3CC3)nn2)c(C)c1 (stereo not shown) [CC-186, N-Cyclopropyl-N-(4-dimethylamino-cyclohexyl)-2-[4-[[(4-methoxy-2,6-dimethyl-phenyl)sulfonyl]-methyl]-1H-[1,2,3]triazol-1-yl]-acetamid]	100%
